Assay results from the NIST ThermoML archive (doi:10.1016/j.jct.2016.02.015).
Numbers after ± are expanded uncertainties.

Assay: excess molar enthalpy (molar enthalpy of mixing); xn = mol fraction of the nth substance listed
Settings: 100 kPa, Liquid, Calvet calorimetry

**Q.** Which excess molar enthalpy (873 K, x1 = 0.703) does the source give for `[Li]` [lithium] + [Ga] here?
**A.** -4.64 ± 0.191 kcal/mol

**Q.** What about the excess molar enthalpy (873 K, x1 = 0.7734) of the same compound?
**A.** -3.87 ± 0.191 kcal/mol

**Q.** And the excess molar enthalpy (873 K, x1 = 0.8058)?
**A.** -3.44 ± 0.191 kcal/mol

**Q.** And the excess molar enthalpy (873 K, x1 = 0.8391)?
**A.** -2.92 ± 0.191 kcal/mol

**Q.** And the excess molar enthalpy (873 K, x1 = 0.865)?
**A.** -2.51 ± 0.191 kcal/mol

**Q.** And the excess molar enthalpy (873 K, x1 = 0.894)?
**A.** -2.03 ± 0.191 kcal/mol

**Q.** What about the excess molar enthalpy (873 K, x1 = 0.9218) of the same compound?
**A.** -1.53 ± 0.191 kcal/mol

**Q.** And the excess molar enthalpy (873 K, x1 = 0.9468)?
**A.** -0.98 ± 0.191 kcal/mol

**Q.** What about the excess molar enthalpy (873 K, x1 = 0.9801) of the same compound?
**A.** -0.335 ± 0.191 kcal/mol

**Q.** And the excess molar enthalpy (992 K, x1 = 0.0908)?
**A.** -1.22 ± 0.12 kcal/mol

**Q.** What about the excess molar enthalpy (992 K, x1 = 0.1797) of the same compound?
**A.** -2.44 ± 0.12 kcal/mol

**Q.** And the excess molar enthalpy (992 K, x1 = 0.2283)?
**A.** -3.06 ± 0.0956 kcal/mol

**Q.** What about the excess molar enthalpy (992 K, x1 = 0.3064) of the same compound?
**A.** -3.85 ± 0.0956 kcal/mol

**Q.** What about the excess molar enthalpy (992 K, x1 = 0.3748) of the same compound?
**A.** -4.47 ± 0.0956 kcal/mol

**Q.** What about the excess molar enthalpy (1039 K, x1 = 0.4284) of the same compound?
**A.** -4.73 ± 0.0717 kcal/mol

**Q.** And the excess molar enthalpy (1039 K, x1 = 0.5421)?
**A.** -5.07 ± 0.0717 kcal/mol

**Q.** What about the excess molar enthalpy (1039 K, x1 = 0.652) of the same compound?
**A.** -4.78 ± 0.0717 kcal/mol

**Q.** What about the excess molar enthalpy (1039 K, x1 = 0.7322) of the same compound?
**A.** -4.06 ± 0.0478 kcal/mol

**Q.** And the excess molar enthalpy (1039 K, x1 = 0.7709)?
**A.** -3.54 ± 0.0478 kcal/mol

**Q.** What about the excess molar enthalpy (1039 K, x1 = 0.7991) of the same compound?
**A.** -3.06 ± 0.0478 kcal/mol

**Q.** And the excess molar enthalpy (1039 K, x1 = 0.8282)?
**A.** -2.68 ± 0.0478 kcal/mol
